One assay concerns MOLM-13 cells. Nature of the assay: Cell viability assay (CellTiter-Glo) in MOLM-13 cells, alone or with gilteritinib. Format: cell-based. The conditions noted are these: Homo sapiens, MOLM-13 cells, three days, CellTiter-Glo. On the technique in general: In ATP-based viability assays light output follows the ATP content of the culture.
A further assay deals with MV4;11 cells. The experiment in a line: Cell viability assay (CellTiter-Glo) in MV4;11 cells, alone or with gilteritinib. In kind it is cell-based. The conditions noted are these: Homo sapiens, MV4;11 cells, three days, CellTiter-Glo, read-out: MV4.
Where [1] appears, read: MOLM-13, 72 h, compound alone (without gilteritinib), read-out: MOLM-13 IC50.
[2] abbreviates: MOLM-13, 72 h, with gilteritinib 20 nM, read-out: MOLM-13 IC50 gilteritinib.
Where [3] appears, read: MV4-11, 72 h, compound alone (without gilteritinib), 11 IC50.
Where [4] appears, read: MV4-11, 72 h, with gilteritinib 10 nM, 11 IC50 gilteritinib.
Where [5] appears, read: 72 h, compound alone (without gilteritinib), read-out: MOLM-13 IC50.
[6] abbreviates: 72 h, with gilteritinib 20 nM, read-out: MOLM-13 IC50 gilteritinib.
Setting [7] is: 72 h, compound alone (without gilteritinib), 11 IC50.
[8] abbreviates: 72 h, with gilteritinib 10 nM, 11 IC50 gilteritinib.

Each structure is given as a SMILES string. Like-named read-outs stand apart in the source and are kept apart here.

As for `O=C1CCC(N2C(=O)c3ccc(NC[C@H]4C[C@H](n5cc(-c6nccc7cn[nH]c67)c(C6CC6)n5)C4)cc3C2=O)C(=O)N1` (stereo partly drawn) [GS-310, 5-(((trans-3-(3-Cyclopropyl-4-(1H-pyrazolo[3,4-c]pyridin-7-yl)-1H-pyrazol-1-yl)cyclobutyl)methyl)amino)-2-(2,6-dioxopiperidin-3-yl)isoindoline-1,3-dione], the IC50 in the assay on MOLM-13 cells (setting [1]) was in the range of 100 to 1000 nM; with MOLM-13 cells (setting [2]), 10 to 100 nM; with MV4;11 cells (setting [3]), 10 to 100 nM; in the assay with MV4;11 cells (setting [4]), 10 to 100 nM.

As to `O=C1CCC(N2C(=O)c3ccc(NCCC[C@H]4C[C@H](n5cc(-c6ncccc6Cl)cn5)C4)cc3C2=O)C(=O)N1` (stereo partly drawn) [GS-311, 5-((3-(trans-3-(4-(3-Chloropyridin-2-yl)-1H-pyrazol-1-yl)cyclobutyl)propyl)amino)-2-(2,6-dioxopiperidin-3-yl)isoindoline-1,3-dione], the IC50 in the assay on MOLM-13 cells (setting [1]) was > 1000 nM; in the assay with MOLM-13 cells (setting [2]), 10 to 100 nM; in the assay on MV4;11 cells (setting [3]), 10 to 100 nM; in the assay on MV4;11 cells (setting [4]) it was < 10 nM.

For the molecule `O=C(CCn1cc(-c2cnc3ccccc3n2)c(C2CC2)n1)NCc1ccc2c(c1)C(=O)N(C1CCC(=O)NC1=O)C2=O` (centres unmarked) [GS-312, 3-(3-Cyclopropyl-4-(quinoxalin-2-yl)-1H-pyrazol-1-yl)-N-((2-(2,6-dioxopiperidin-3-yl)-1,3-dioxoisoindolin-5-yl)methyl)propanamide], the IC50 in the assay with MOLM-13 cells (setting [5]), with MOLM-13 cells (setting [6]), in the assay with MV4;11 cells (setting [7]) and with MV4;11 cells (setting [8]) was > 1000 nM each time.

On to `O=C1CCC(N2C(=O)c3ccc(CNCCCn4cc(-c5cnc6ccccc6n5)c(C5CC5)n4)cc3C2=O)C(=O)N1` (centres unmarked) [GS-313, 5-(((3-(3-Cyclopropyl-4-(quinoxalin-2-yl)-1H-pyrazol-1-yl)propyl)amino)methyl)-2-(2,6-dioxopiperidin-3-yl)isoindoline-1,3-dione], for which the IC50 with MOLM-13 cells (setting [1]), in the assay with MOLM-13 cells (setting [2]), with MV4;11 cells (setting [3]) and in the assay with MV4;11 cells (setting [4]) was > 1000 nM each time.

Consider `CN1CCN(c2ccc3nc(-c4cn([C@H]5C[C@H](CNc6ccc7c(c6)C(=O)N(C6CCC(=O)NC6=O)C7=O)C5)nc4C4CC4)cnc3c2)CC1` (stereo partly drawn) [GS-314, 5-(((trans-3-(3-Cyclopropyl-4-(6-(4-methylpiperazin-1-yl)quinoxalin-2-yl)-1H-pyrazol-1-yl)cyclobutyl)methyl)amino)-2-(2,6-dioxopiperidin-3-yl)isoindoline-1,3-dione], for which the IC50 in the assay with MOLM-13 cells (setting [1]) was 10 to 100 nM; in the assay with MOLM-13 cells (setting [2]), < 10 nM; with MV4;11 cells (setting [3]), 10 to 100 nM; in the assay with MV4;11 cells (setting [4]) it was < 10 nM.

Consider `O=C1CCC(N2C(=O)c3ccc(NCCCCCCn4cc(-c5cnc6cccc(Br)c6n5)cn4)cc3C2=O)C(=O)N1` (centres unmarked) [GS-315, 5-((6-(4-(8-Bromoquinoxalin-2-yl)-1H-pyrazol-1-yl)hexyl)amino)-2-(2,6-dioxopiperidin-3-yl)isoindoline-1,3-dione], for which the IC50 with MOLM-13 cells (setting [1]) is 100 to 1000 nM; in the assay on MOLM-13 cells (setting [2]), 10 to 100 nM; with MV4;11 cells (setting [3]) it was 10 to 100 nM; with MV4;11 cells (setting [4]), < 10 nM.

Regarding `O=C(CN1CCC(n2cc(-c3cnc4ccccc4n3)cn2)CC1)NCCCNc1ccc2c(c1)C(=O)N(C1CCC(=O)NC1=O)C2=O` (centres unmarked) [GS-316, N-(3-((2-(2,6-Dioxopiperidin-3-yl)-1,3-dioxoisoindolin-5-yl)amino)propyl)-2-(4-(4-(quinoxalin-2-yl)-1H-pyrazol-1-yl)piperidin-1-yl)acetamide], the IC50 with MOLM-13 cells (setting [1]) was > 1000 nM; in the assay with MOLM-13 cells (setting [2]), 100 to 1000 nM; in the assay on MV4;11 cells (setting [3]) it was > 1000 nM; with MV4;11 cells (setting [4]), > 1000 nM.

As to `O=C(CN1CCC(n2cc(-c3ccc4ccccc4n3)cn2)CC1)NCCCNc1ccc2c(c1)C(=O)N(C1CCC(=O)NC1=O)C2=O` (centres unmarked) [GS-317, N-(3-((2-(2,6-Dioxopiperidin-3-yl)-1,3-dioxoisoindolin-5-yl)amino)propyl)-2-(4-(4-(quinolin-2-yl)-1H-pyrazol-1-yl)piperidin-1-yl)acetamide], the IC50 in the assay on MOLM-13 cells (setting [1]) is > 1000 nM; in the assay on MOLM-13 cells (setting [2]), 100 to 1000 nM; with MV4;11 cells (setting [3]) it was > 1000 nM; with MV4;11 cells (setting [4]) it was > 1000 nM.

As to `O=C1CCC(N2C(=O)c3ccc(NCCCC(=O)N4CCN(c5ccccn5)CC4)cc3C2=O)C(=O)N1` (centres unmarked) [GS-318, 2-(2,6-Dioxopiperidin-3-yl)-5-((4-oxo-4-(4-(pyridin-2-yl)piperazin-1-yl)butyl)amino)isoindoline-1,3-dione], the IC50 in the assay with MOLM-13 cells (setting [5]) is > 1000 nM; in the assay with MOLM-13 cells (setting [6]) it was 10 to 100 nM; in the assay with MV4;11 cells (setting [7]), 100 to 1000 nM; with MV4;11 cells (setting [8]), 10 to 100 nM.

For `O=C1CCC(N2C(=O)c3ccc(NCCCC(=O)N4CCN(c5ccccc5)CC4)cc3C2=O)C(=O)N1` (centres unmarked) [GS-319, 2-(2,6-Dioxopiperidin-3-yl)-5-((4-oxo-4-(4-phenylpiperazin-1-yl)butyl)amino)isoindoline-1,3-dione], the IC50 in the assay on MOLM-13 cells (setting [5]) is > 1000 nM; with MOLM-13 cells (setting [6]), 10 to 100 nM; in the assay on MV4;11 cells (setting [7]), > 1000 nM; in the assay with MV4;11 cells (setting [8]), > 1000 nM.

Consider `CN(c1ccccc1)C1CCN(CC(=O)NCCNc2ccc3c(c2)C(=O)N(C2CCC(=O)NC2=O)C3=O)CC1` (centres unmarked) [GS-320], for which the IC50 was > 1000 nM in the assay with MOLM-13 cells (setting [5]), 100 to 1000 nM in the assay on MOLM-13 cells (setting [6]), > 1000 nM in the assay on MV4;11 cells (setting [7]) and > 1000 nM in the assay with MV4;11 cells (setting [8]).

Regarding `CN(c1ccccn1)C1CCN(CC(=O)NCCNc2ccc3c(c2)C(=O)N(C2CCC(=O)NC2=O)C3=O)CC1` (centres unmarked) [GS-321, N-(2-((2-(2,6-Dioxopiperidin-3-yl)-1,3-dioxoisoindolin-5-yl)amino)ethyl)-2-(4-(methyl(pyridin-2-yl)amino)piperidin-1-yl)acetamide], the IC50 with MOLM-13 cells (setting [1]) is > 1000 nM; in the assay on MOLM-13 cells (setting [2]), 100 to 1000 nM; in the assay on MV4;11 cells (setting [3]), > 1000 nM; in the assay with MV4;11 cells (setting [4]), > 1000 nM.

For the molecule `CN(c1ccc2[nH]ccc2n1)C1CCN(CC(=O)NCCNc2ccc3c(c2)C(=O)N(C2CCC(=O)NC2=O)C3=O)CC1` (centres unmarked) [GS-322, N-(2-((2-(2,6-Dioxopiperidin-3-yl)-1,3-dioxoisoindolin-5-yl)amino)ethyl)-2-(4-(methyl(1H-pyrrolo[3,2-b]pyridin-5-yl)amino)piperidin-1-yl)acetamide], the IC50 in the assay with MOLM-13 cells (setting [1]), with MOLM-13 cells (setting [2]), in the assay with MV4;11 cells (setting [3]) and in the assay on MV4;11 cells (setting [4]) was > 1000 nM each time.

`O=C1CCC(N2C(=O)c3ccc(NCCCCC(=O)N4CCC(n5cc(-c6cnc7ccccc7n6)cn5)CC4)cc3C2=O)C(=O)N1` (centres unmarked) [GS-323, 2-(2,6-Dioxopiperidin-3-yl)-5-((5-oxo-5-(4-(4-(quinoxalin-2-yl)-1H-pyrazol-1-yl)piperidin-1-yl)pentyl)amino)isoindoline-1,3-dione]: the IC50 in the assay with MOLM-13 cells (setting [1]) is > 1000 nM; with MOLM-13 cells (setting [2]), < 10 nM; in the assay on MV4;11 cells (setting [3]) it was 100 to 1000 nM; in the assay with MV4;11 cells (setting [4]) it was < 10 nM.

`O=C1CCC(N2C(=O)c3ccc(NCCOCCC(=O)N4CCC(n5cc(-c6cnc7ccccc7n6)cn5)CC4)cc3C2=O)C(=O)N1` (centres unmarked) [GS-324, 2-(2,6-Dioxopiperidin-3-yl)-5-((2-(3-oxo-3-(4-(4-(quinoxalin-2-yl)-1H-pyrazol-1-yl)piperidin-1-yl)propoxy)ethyl)amino)isoindoline-1,3-dione]: the IC50 in the assay on MOLM-13 cells (setting [1]) is > 1000 nM; with MOLM-13 cells (setting [2]) it was 10 to 100 nM; in the assay with MV4;11 cells (setting [3]), > 1000 nM; in the assay with MV4;11 cells (setting [4]), 100 to 1000 nM.

Turning to `O=C1CCC(N2C(=O)c3ccc(NC(=O)CCCCC(=O)N4CCC(n5cc(-c6cnc7ccccc7n6)cn5)CC4)cc3C2=O)C(=O)N1` (centres unmarked) [GS-325, N-(2-(2,6-Dioxopiperidin-3-yl)-1,3-dioxoisoindolin-5-yl)-6-oxo-6-(4-(4-(quinoxalin-2-yl)-1H-pyrazol-1-yl)piperidin-1-yl)hexanamide], the IC50 with MOLM-13 cells (setting [1]) was > 1000 nM; with MOLM-13 cells (setting [2]), 100 to 1000 nM; in the assay with MV4;11 cells (setting [3]), > 1000 nM; in the assay with MV4;11 cells (setting [4]), 100 to 1000 nM.

For the molecule `O=C1CCC(N2C(=O)c3ccc(NCCCCCCN4CCC(n5cc(-c6cnc7ccccc7n6)cn5)CC4)cc3C2=O)C(=O)N1` (centres unmarked) [GS-326, 2-(2,6-Dioxopiperidin-3-yl)-5-((6-(4-(4-(quinoxalin-2-yl)-1H-pyrazol-1-yl)piperidin-1-yl)hexyl)amino)isoindoline-1,3-dione], the IC50 is > 1000 nM in the assay on MOLM-13 cells (setting [1]), 100 to 1000 nM in the assay with MOLM-13 cells (setting [2]), > 1000 nM in the assay on MV4;11 cells (setting [3]) and > 1000 nM in the assay on MV4;11 cells (setting [4]).

As to `O=C1CCC(N2C(=O)c3ccc(NC(=O)CCCC(=O)N4CCC(n5cc(-c6cnc7ccccc7n6)cn5)CC4)cc3C2=O)C(=O)N1` (centres unmarked) [GS-327, N-(2-(2,6-Dioxopiperidin-3-yl)-1,3-dioxoisoindolin-5-yl)-5-oxo-5-(4-(4-(quinoxalin-2-yl)-1H-pyrazol-1-yl)piperidin-1-yl)pentanamide], the IC50 in the assay on MOLM-13 cells (setting [1]) is > 1000 nM; with MOLM-13 cells (setting [2]), > 1000 nM; in the assay with MV4;11 cells (setting [3]) it was > 1000 nM; with MV4;11 cells (setting [4]) it was 100 to 1000 nM.

For `O=C1CCC(N2C(=O)c3ccc(NCCC[C@H]4C[C@H](n5cc(-c6cc(Cl)ccn6)cn5)C4)cc3C2=O)C(=O)N1` (stereo partly drawn) [GS-328, 5-((3-(trans-3-(4-(4-Chloropyridin-2-yl)-1H-pyrazol-1-yl)cyclobutyl)propyl)amino)-2-(2,6-dioxopiperidin-3-yl)isoindoline-1,3-dione], the IC50 in the assay on MOLM-13 cells (setting [1]) is > 1000 nM; in the assay with MOLM-13 cells (setting [2]) it was 10 to 100 nM; in the assay on MV4;11 cells (setting [3]) it was 100 to 1000 nM; in the assay on MV4;11 cells (setting [4]) it was 10 to 100 nM.

Turning to `O=C1CCC(N2Cc3cc(OCCCCCC(=O)N4CCN(c5ccccc5)CC4)ccc3C2=O)C(=O)N1` (centres unmarked) [GS-329, 3-(1-Oxo-5-((6-oxo-6-(4-phenylpiperazin-1-yl)hexyl)oxy)isoindolin-2-yl)piperidine-2,6-dione], the IC50 is > 1000 nM in the assay with MOLM-13 cells (setting [5]), 100 to 1000 nM with MOLM-13 cells (setting [6]), > 1000 nM in the assay with MV4;11 cells (setting [7]) and > 1000 nM in the assay on MV4;11 cells (setting [8]).

These data come from patent US20240050428A1 (Cullgen (Shanghai), Inc., priority 2020, published 2024).
